Reference: article PMC6150735, “Molecular Docking-Based Design and Development of a Highly Selective Probe Substrate for UDP-glucuronosyltransferase 1A10” (Molecular Pharmaceutics, 2018)
Entries after “also recorded” stand apart in the source; their conditions may differ.

Columns and labels:
[1] = Glucuronidation by human intestinal microsomes (HIM); format: in vitro ADME; conditions: human, pooled human intestinal microsomes (HIM), pH 7.4
Procedure: (§1) A commercial HLM pool (cat no:452210, BD Gentest, Bedford, MA) and human intestine microsomes (HIM) pool (lot. no 1110189, XenoTech, Kansas City, KS) were purchased. Pig liver samples were prepared from untreated female pigs that were used for practicing surgical procedures at the University of Kuopio (currently: University of Eastern Finland, Kuopio campus). Other animal liver microsomes were prepared as described previously.[41] The Ethics Committee for Animal Experiments, University of Kuopio, approved these experiments.
(§2) The incubation mixtures for glucuronidation assays contained 100 mM Tris-HCl buffer pH 7.4, 2.5 mM MgCl2, 0.5 mM UDPGA, recombinant UGT, or microsomes as the enzyme source and 0–15 μM of the test aglycone substrate. When the incubation mixtures contained microsomes, alamethicin was used at a final concentration of 12.5 μg/mL, but it was not included in the recombinant enzyme assays.[43] In the first experiments three negative control samples were tested, namely (i) without the substrate 7-hydroxycoumarin derivative, (ii) without the cofactor UDPGA, or (iii) without the enzyme source. In subsequent experiments, the control samples lacked the enzyme source since it gave the highest fluorescence background. Preliminary experiments were done under different conditions than most of the later assays, namely in 2.5 mL of 100 mM phosphate buffer pH 7.4, containing 500 μg pig liver microsomes, 1.0 μM compound 6 and 0.5 mM UDPGA, at room temperature. Fluorescence spectra (excitation 200–420 nm; emission 400–600 nm) or fluorescence decrease at 390 nm excitation and 460 nm emission, were measured in these preliminary experiments, using a Shimadzu RF-5000 spectrophotofluorometer.
(§3) Most of the glucuronidation assays were carried out in 96 multiwell plate format, and incubations were carried out in 100 μL and at 37 °C, in the presence of Tris–HCl buffer pH 7.4, UDPGA, and the tested 7-hydroxycoumarin derivative, at the indicated concentrations. Fluorescence decline in the multiwell plate experiments was monitored every other minute, for 40 min, using an excitation filter at 405 nm and detection at 460 nm, in a Victor2 1420 Multilabel counter (PerkinElmer, Life Sciences, Turku, Finland). The fluorescence values were transformed into molarity using the aglycone substrates for making the respective standard curves. Slopes of the substrate concentration decrease per minute were calculated using linear regression analysis, in which the linear part of the kinetic assay indicated the glucuronidation rate. Enzyme catalyzed glucuronidation rate was calculated by subtracting the blank value from the full reaction value. The intra-assay variability of the kinetic assays was 6% when compound 6 was used as the aglycone substrate. Kinetic analyses were also performed in the same 96 multiwell plates format, with excitation filter at 405 nm and detection at 460 nm, using 6–8 different substrate concentrations per substrate and two different protein concentrations for both the wild-type and mutant UGT1A10. The higher concentrations, 13.5 mg/L for UGT1A10 and 12.0 mg/L for the UGT1A10 mutant, were used when the substrates were HFC, compounds 4 and 6, whereas the lower protein concentrations, 6.75 and 6.0 mg/L for UGT1A10 and the mutant, respectively, were used when the substrates were compounds 1, 2, 3, and 5.

[2] = tested on: human intestinal microsomes (HIM); assay: as above; format: in vitro ADME
Procedure: as §1, §2, §3

UGT1A10 = biological target: T1, UGT1A10 (Homo sapiens, UniProt Q9HAW8); assay: Glucuronidation kinetics by recombinant wild-type UGT1A10 (fluorescence decrease, 96-well plate); format: biochemical
T1 construct: His-tag; made in house; host or cells: baculovirus-infected insect cells
T1 sequence (Q9HAW8 26-530): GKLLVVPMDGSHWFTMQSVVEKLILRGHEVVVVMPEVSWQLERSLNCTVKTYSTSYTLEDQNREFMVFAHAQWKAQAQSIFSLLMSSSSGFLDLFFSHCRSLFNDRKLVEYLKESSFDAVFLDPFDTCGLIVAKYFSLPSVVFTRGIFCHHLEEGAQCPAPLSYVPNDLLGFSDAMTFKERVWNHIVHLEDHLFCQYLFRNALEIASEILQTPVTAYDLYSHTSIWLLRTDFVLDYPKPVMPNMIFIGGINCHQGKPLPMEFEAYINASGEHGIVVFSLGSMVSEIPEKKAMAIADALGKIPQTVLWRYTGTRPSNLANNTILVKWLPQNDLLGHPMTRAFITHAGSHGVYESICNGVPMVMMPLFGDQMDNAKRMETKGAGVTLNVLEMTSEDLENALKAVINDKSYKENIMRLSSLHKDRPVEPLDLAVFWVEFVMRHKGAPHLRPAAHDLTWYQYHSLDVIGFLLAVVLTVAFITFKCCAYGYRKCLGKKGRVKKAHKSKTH
Procedure: Recombinant human UGTs 1A1, 1A3, 1A6, 1A7, 1A8, 1A9, 1A10, 2A1, 2A2, 2A3, 2B4, 2B10, 2B7, and 2B17 were produced, as His-tagged proteins, in baculovirus-infected insect cells as previously described.[37]−[39] The relative expression level of each of these recombinant UGTs was evaluated by immunodetection, using monoclonal antibody against the His-tag, as described elsewhere.[40] A numeric value of 1.0 was given to the expression level of UGT1A8 and the relative expression level of each of the other UGTs was related to this value. Normalized activities were obtained by dividing the glucuronidation rate values by the relative expression level of the tested UGT. […] The expression levels of the UGTs in the commercial samples could not be determined, so their protein concentration was used to calculate the reaction rate.
The incubation mixtures for glucuronidation assays contained 100 mM Tris-HCl buffer pH 7.4, 2.5 mM MgCl2, 0.5 mM UDPGA, recombinant UGT, or microsomes as the enzyme source and 0–15 μM of the test aglycone substrate. […] In subsequent experiments, the control samples lacked the enzyme source since it gave the highest fluorescence background. […] Fluorescence spectra (excitation 200–420 nm; emission 400–600 nm) or fluorescence decrease at 390 nm excitation and 460 nm emission, were measured in these preliminary experiments, using a Shimadzu RF-5000 spectrophotofluorometer. […]

[3] = tested on: human liver microsomes (HLM); assay: Glucuronidation by human liver microsomes (HLM); format: in vitro ADME
Procedure: as §1, §2, §3

[4] = Glucuronidation by human liver microsomes (HLM); format: in vitro ADME; conditions: pooled human liver microsomes (HLM), pH 7.4; human hepatic microsomes
Procedure: as §1, §2, §3

[5] = Absorbance spectra of coumarin derivatives; format: physicochemical; conditions: 10 μM, 100 mM Tris–HCl pH 7.4, 10% dimethyl sulfoxide
Procedure: The absorbance spectra of 10 μM coumarin derivatives at 100 mM Tris–HCl pH 7.4 containing 10% dimethyl sulfoxide were measured using a Hitachi U-2000 Spectrophotometer (Tokyo, Japan). Excitation and emission fluorescence spectra of 0.1 μM coumarin derivatives in 100 mM Tris-HCl pH 7.4 were measured using a Shimadzu RF-5000 spectrophotofluorometer (Tokyo, Japan). The excitation spectra was from 200 to 420 at 460 nm emission and the emission spectra was from 400 to 600 at 390 nm excitation (data in Supplementary Table S1 and Figures S1 and S2). The effect of pH on fluorescence intensity was determined at 405 nm excitation and 460 nm emission, in the presence of 1.5% trichloroacetic acid, 100 mM phosphate buffers at pH 5, 6, 7, 8, and 9, or 1.6 M glycine–NaOH pH 10.4.

Q: Which Km [1] does the source give for `O=c1oc2cc(O)ccc2cc1-n1cncn1` [Compound 6, 7-Hydroxy-3-(1H-1,2,4-triazol-1-yl)-2H-chromen-2-one] here?
A: 12 µM

Q: What about the Vmax ([2]; human intestinal microsomes) of the same compound?
A: 3.5 (2.9–4.0) μmol/(min * g prot)

Q: What about the “Effect of adding albumin on Km and Vmax” value ([2]; intestinal microsomes, albumin in incubation mixture) of the same compound?
A: increased both Km and Vmax values

Q: And the “Intrinsic glucuronidation clearance (Vmax/Km) by UGT1A10 relative to compounds 1–5” value (UGT1A10)?
A: less than 30%

Q: What about the “Glucuronidation by HLM (in words)” value ([3]; 10 μM aglycone) of the same compound?
A: not glucuronidated by HLM at all, or only at very low rates; also recorded: very low or below the detection limit

Q: And the Vmax ([3]; human hepatic microsomes)?
A: 4.0 (2.6–5.4) μmol/(min* g prot)

Q: What about the Km [4] of the same compound?
A: 82 µM

Q: What about the Amax [5] of the same compound?
A: 392 nm

Q: What about the ε abs [5] of the same compound?
A: 20 500 cmx1*Mx1
